Measurements: patent US10618902B2, “Substituted pyrido[2,3-d]pyrimidines as inhibitors of protein kinases” (Celgene CAR LLC, priority 2013, dated 2020)
Like-named read-outs stand apart in the source and are kept apart here.

How the values were obtained:
FGFR4-WT = FGFR4-WT (Homo sapiens (Human), UniProt P22455); assay: Omnia assay for potency against FGFR4 enzyme; assay type: biochemical; conditions: method a: FGFR4-WT (Invitrogen) 10 nM, ATP 300 uM, Y10-Sox 10 uM
Procedure: A 10× stock solution of FGFR4-WT (PR4380C or P3054), (from Invitrogen, Carlsbad, Calif.) corresponding to method a in Table 10, was prepared as described below. Alternatively, a 10× stock solution of FGFR4-WT (F01-11G), (SignalChem, Richmond, BC) corresponding to method b in Table 10, was prepared as described below. A solution of 1.4×ATP (AS001A) and 5× Tyr-Sox conjugated peptide substrate (KNZ3101) were prepared in 1× kinase reaction buffer consisting of 20 mM Tris, pH 7.5, 5 mM MgCl2, 1 mM EGTA, 5 mM […], 5% glycerol (10× stock, KB002A) and 0.2 mM DTT (DS001A). […] The serially diluted compounds were prepared on a Tecan EVO100. A second addition of 10 μl of Tyr-Sox FGFR4 substrate was added to each well and the kinase reactions were started with the addition of 35 μL of 1.4×ATP. The reactions were monitored every 71 seconds for 240 minutes at λex360/λem485 in a Synergy plate reader from BioTek (Winooski, Vt.). […] Methods:
a) [FGFR4-WT]=10 nM, [ATP]=300 uM, [Y10-Sox]=10 uM (ATP KMapp−300 uM),

pFGFR4 (Huh7 cells) = pFGFR4 (Huh7 cells) (Homo sapiens (Human), UniProt P22455); assay: FGFR4 signaling (pFGFR4) in Huh7 cells (MSD); assay type: cell-based; conditions: read-out: Signaling EC50 (nM) pFGFR4 (Huh)
Huh7 cells = assay: Cell proliferation, Huh7 (CellTiter Glo); assay type: cell-based
Procedure: The growth inhibition (GI50) values were determined by Graph Pad Prism.

[1] = 120 hr, read-out: Cell Proliferation GI50 (nM) HUH

Chain of FGFR4-WT (P22455 22-802): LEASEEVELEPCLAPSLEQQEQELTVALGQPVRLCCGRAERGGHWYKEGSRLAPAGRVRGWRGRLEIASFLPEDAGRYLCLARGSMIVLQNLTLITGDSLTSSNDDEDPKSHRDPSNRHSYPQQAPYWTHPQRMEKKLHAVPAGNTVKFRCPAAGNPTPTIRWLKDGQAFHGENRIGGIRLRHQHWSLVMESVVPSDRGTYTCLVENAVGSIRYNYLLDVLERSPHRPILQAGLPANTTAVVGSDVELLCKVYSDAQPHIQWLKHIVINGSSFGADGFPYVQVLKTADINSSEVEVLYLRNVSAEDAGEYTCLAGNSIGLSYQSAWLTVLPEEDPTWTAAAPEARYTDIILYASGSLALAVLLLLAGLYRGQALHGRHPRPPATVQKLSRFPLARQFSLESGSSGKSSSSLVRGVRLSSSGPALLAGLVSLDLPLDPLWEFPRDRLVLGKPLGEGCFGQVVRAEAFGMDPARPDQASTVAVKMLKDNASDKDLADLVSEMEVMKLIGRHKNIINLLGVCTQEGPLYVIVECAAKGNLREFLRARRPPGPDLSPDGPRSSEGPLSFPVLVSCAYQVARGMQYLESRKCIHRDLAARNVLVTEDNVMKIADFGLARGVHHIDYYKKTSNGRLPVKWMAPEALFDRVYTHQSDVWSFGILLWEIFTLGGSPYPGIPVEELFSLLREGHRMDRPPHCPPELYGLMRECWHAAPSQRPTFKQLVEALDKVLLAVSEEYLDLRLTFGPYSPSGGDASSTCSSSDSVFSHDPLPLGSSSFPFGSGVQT
Chain of pFGFR4 (Huh7 cells) (P22455 22-802): as above

SMILES | IC50 (FGFR4-WT) [nM] | EC50 (pFGFR4 (Huh7 cells)) [nM] | GI50 (Huh7 cells; Homo sapiens, Huh-7, 120 hr) [nM] | GI50 (Huh7 cells; [1]) [nM]
C=CC(=O)NC1CCCCC1Nc1ncc2c(n1)N(CCF)C(=O)N(c1c(Cl)c(OC)cc(OC)c1Cl)C2 (racemic) [Compound I-106] | 101 to 500 | – | – | –
C=CC(=O)NC1CN(C)CC1Nc1ncc2c(n1)N(C)C(=O)N(c1c(Cl)c(OC)cc(OC)c1Cl)C2 (racemic) [Compound I-138] | 101 to 500 | – | – | –
C=CC(=O)NC1CN(C(C)=O)CC1Nc1ncc2c(n1)N(C)C(=O)N(c1c(Cl)c(OC)cc(OC)c1Cl)C2 (racemic) [Compound I-139] | < 100 | – | – | –
C=CC(=O)NC1CN(c2ccn(C)n2)CC1Nc1ncc2cc(-c3c(Cl)c(OC)cc(OC)c3Cl)c(=O)n(C)c2n1 (stereo not shown) [Compound I-248] | < 100 | < 100 | < 100 | –
C#CC(=O)N[C@H]1COC[C@H]1Nc1ncc2cc(-c3c(Cl)c(OC)cc(OC)c3Cl)c(=O)n(C)c2n1 [Compound I-251] | < 100 | < 100 | – | –
C=CC(=O)NC1CN(c2ccccn2)CC1Nc1ncc2cc(-c3c(Cl)c(OC)cc(OC)c3Cl)c(=O)n(C)c2n1 (stereo not shown) [Compound I-252] | < 100 | < 100 | – | –
C=CS(=O)(=O)N[C@H]1CCC[C@H]1Nc1ncc2cc(-c3c(Cl)c(OC)cc(OC)c3Cl)c(=O)n(C)c2n1 [Compound I-253] | < 100 | < 100 | – | –
C=CC(=O)N[C@H]1COC[C@H]1Nc1ncc2cc(-c3cc(OC)cc(OC)c3Cl)c(=O)n(C)c2n1 [Compound I-254] | – | – | – | 101 to 500
C=CC(=O)NC1CS(=O)(=O)CC1Nc1ncc2cc(-c3c(Cl)c(OC)cc(OC)c3Cl)c(=O)n(C)c2n1 (stereo not shown) [Compound I-256] | < 100 | < 100 | – | –
C=CC(=O)Nc1cc(F)c(F)cc1Nc1ncc2cc(-c3c(Cl)c(OC)cc(OC)c3Cl)c(=O)n(C)c2n1 [Compound I-257] | < 100 | < 100 | 101 to 500 | –
C=CC(=O)Nc1ccc(C(F)(F)F)cc1Nc1ncc2cc(-c3c(Cl)c(OC)cc(OC)c3Cl)c(=O)n(C)c2n1 [Compound I-258] | < 100 | < 100 | – | –
C=CC(=O)Nc1cccc(F)c1Nc1ncc2cc(-c3c(Cl)c(OC)cc(OC)c3Cl)c(=O)n(C)c2n1 [Compound I-259] | < 100 | < 100 | 101 to 500 | –
C=CC(=O)Nc1cc(-c2cnn(C)c2)ccc1Nc1ncc2cc(-c3c(Cl)c(OC)cc(OC)c3Cl)c(=O)n(C)c2n1 [Compound I-264] | < 100 | < 100 | – | –
C=CC(=O)N[C@H]1COC[C@H]1Nc1ncc2cc(-c3cc(C(=O)Nc4cccc(C(C)(C)C)c4)ccc3Cl)c(=O)n(C)c2n1 [Compound I-265] | < 100 | < 100 | – | –
C=CC(=O)Nc1cc(-c2ccn(C)n2)ccc1Nc1ncc2cc(-c3c(Cl)c(OC)cc(OC)c3Cl)c(=O)n(C)c2n1 [Compound I-267] | < 100 | < 100 | – | –
C=CC(=O)N[C@H]1COC[C@H]1Nc1ncc2cc(-c3cc(OC)cc(OC)c3F)c(=O)n(C)c2n1 [Compound I-274] | < 100 | < 100 | – | –
C=CC(=O)Nc1nc(C)ccc1Nc1ncc2cc(-c3c(Cl)c(OC)cc(OC)c3Cl)c(=O)n(C)c2n1 [Compound I-278] | < 100 | < 100 | – | –

SMILES | IC50 (FGFR4-WT) [nM] | EC50 (pFGFR4 (Huh7 cells)) [nM] | GI50 (Huh7 cells; Homo sapiens, Huh-7, 120 hr) [nM] | GI50 (Huh7 cells; [1]) [nM]
C=CC(=O)Nc1c(Nc2ncc3cc(-c4c(Cl)c(OC)cc(OC)c4Cl)c(=O)n(C)c3n2)ccc(F)c1F [Compound I-282] | < 100 | 101 to 500 | – | –
C=CC(=O)NC1CC(O)CC1Nc1ncc2cc(-c3c(Cl)c(OC)cc(OC)c3Cl)c(=O)n(C)c2n1 (stereo not shown) [Compound I-284] | < 100 | 101 to 500 | – | –
C=CC(=O)NC1CC(=O)CC1Nc1ncc2cc(-c3c(Cl)c(OC)cc(OC)c3Cl)c(=O)n(C)c2n1 (stereo not shown) [Compound I-286] | < 100 | < 100 | – | –
C=CC(=O)NC1CC(F)(F)CC1Nc1ncc2cc(-c3c(Cl)c(OC)cc(OC)c3Cl)c(=O)n(C)c2n1 (stereo not shown) [Compound I-288] | < 100 | < 100 | – | –
C=CC(=O)N[C@H]1COC[C@H]1Nc1ncc2cc(-c3c(Cl)c(OC)cc(OC)c3Cl)c(=O)[nH]c2n1 [Compound I-290] | < 100 | < 100 | < 100 | –
C=CC(=O)N[C@H]1COC[C@H]1Nc1ncc2cc(-c3c(Cl)c(OC)cc(OCC)c3Cl)c(=O)n(C)c2n1 [Compound I-291] | < 100 | < 100 | – | < 100
C=CC(=O)N[C@H]1CN(c2cc[nH]n2)C[C@H]1Nc1ncc2cc(-c3c(Cl)c(OC)cc(OC)c3Cl)c(=O)n(C)c2n1 [Compound I-292] | < 100 | < 100 | < 100 | –
C=CC(=O)N[C@@H]1CN(c2cc[nH]n2)C[C@@H]1Nc1ncc2cc(-c3c(Cl)c(OC)cc(OC)c3Cl)c(=O)n(C)c2n1 [Compound I-293] | 101 to 500 | 101 to 500 | – | –
C=CC(=O)N[C@H]1COC[C@H]1Nc1ncc2cc(-c3c(C)c(OC)cc(OC)c3C)c(=O)n(C)c2n1 [Compound I-294] | – | – | 101 to 500 | –
C=CC(=O)N[C@H]1COC[C@H]1Nc1ncc2cc(-c3c(Cl)c(OC)cc(OC)c3Cl)c(=O)n(CCOC)c2n1 [Compound I-295] | < 100 | < 100 | – | < 100
C=CC(=O)N[C@H]1COC[C@H]1Nc1ncc2cc(-c3c(Cl)c(OC)cc(OC)c3Cl)c(=O)n(C(C)C)c2n1 [Compound I-296] | < 100 | < 100 | – | –
C=CC(=O)N[C@H]1COC[C@H]1Nc1ncc2cc(-c3c(Cl)c(OC)cc(OC)c3Cl)c(=O)nc-2n1CC1CCOC1 (stereo partly shown) [Compound I-298] | < 100 | < 100 | – | < 100
C=CC(=O)N[C@H]1COC[C@H]1Nc1ncc2cc(-c3c(Cl)c(OC)cc(OC)c3Cl)c(=O)nc-2n1C[C@H]1CCN(C(C)=O)C1 [Compound I-299] | < 100 | < 100 | – | 101 to 500
C=CC(=O)N[C@H]1COC[C@H]1Nc1ncc2cc(-c3c(Cl)c(OC)cc(OC)c3Cl)c(=O)nc-2n1C1CCOCC1 [Compound I-300] | < 100 | < 100 | – | –
C=CC(=O)N[C@H]1COC[C@H]1Nc1ncc2cc(-c3cc(OC)cc(OC)c3Cl)c(=O)nc-2n1C[C@H]1CCN(C(C)=O)C1 [Compound I-301] | < 100 | < 100 | – | < 100
C=CC(=O)N[C@H]1COC[C@H]1Nc1ncc2cc(-c3c(Cl)c(OC)cc(OC)c3Cl)c(=O)nc-2n1CCF [Compound I-304] | < 100 | < 100 | – | –
C=CC(=O)N[C@H]1COC[C@H]1Nc1ncc2cc(-c3cc(OC)cc(OC)c3Cl)c(=O)nc-2n1C [Compound I-306] | < 100 | < 100 | – | –
